In publication PMC4425367 (Journal of medicinal chemistry, 2015):
Entries after “also recorded” stand apart in the source; their conditions may differ.

Experiments:
[1] = target: hCB2 receptor (Homo sapiens, UniProt P34972); test: cAMP assay, forskolin-stimulated cAMP in HEK293 cells expressing hCB2; assay type: cell-based; conditions: for classification hCB2: cAMP functional test
[2] = target: rCB1 receptor (Rattus norvegicus, UniProt P20272); test: cAMP assay, forskolin-stimulated cAMP in HEK293 cells expressing rCB1; assay type: cell-based; conditions: cAMP functional test
[3] = target: CB1 receptor (Rattus norvegicus, UniProt P20272); assay type: binding; conditions: 10Ki concentration, incubation extended to 60 min, compared with 30 min
Sequence of CB1 receptor (P20272 whole entry): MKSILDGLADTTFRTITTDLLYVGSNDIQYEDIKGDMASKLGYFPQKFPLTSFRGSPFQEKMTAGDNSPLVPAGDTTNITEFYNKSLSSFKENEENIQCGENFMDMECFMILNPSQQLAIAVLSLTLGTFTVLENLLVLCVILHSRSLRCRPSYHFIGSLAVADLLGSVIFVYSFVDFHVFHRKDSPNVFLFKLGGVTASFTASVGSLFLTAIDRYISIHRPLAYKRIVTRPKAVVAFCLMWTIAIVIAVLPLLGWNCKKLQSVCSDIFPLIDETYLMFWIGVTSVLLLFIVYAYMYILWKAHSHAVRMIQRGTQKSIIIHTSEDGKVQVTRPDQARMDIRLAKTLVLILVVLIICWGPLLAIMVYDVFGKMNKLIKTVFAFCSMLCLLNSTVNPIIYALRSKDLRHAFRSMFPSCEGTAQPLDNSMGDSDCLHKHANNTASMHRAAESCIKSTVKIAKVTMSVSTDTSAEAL

Sequence of hCB2 receptor (P34972 whole entry): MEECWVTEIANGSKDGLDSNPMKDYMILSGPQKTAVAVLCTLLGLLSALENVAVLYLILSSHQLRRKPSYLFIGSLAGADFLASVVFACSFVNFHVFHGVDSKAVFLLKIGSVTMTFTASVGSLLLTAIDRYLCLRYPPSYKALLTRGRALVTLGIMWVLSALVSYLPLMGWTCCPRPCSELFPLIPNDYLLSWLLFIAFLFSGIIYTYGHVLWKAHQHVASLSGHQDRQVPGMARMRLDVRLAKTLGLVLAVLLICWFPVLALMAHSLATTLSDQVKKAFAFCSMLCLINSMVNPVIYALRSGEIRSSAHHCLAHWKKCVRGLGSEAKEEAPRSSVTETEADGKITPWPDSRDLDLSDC
Sequence of rCB1 receptor (P20272 whole entry): as the sequence (P20272 whole entry) above

CCCCCCC(C)(C)c1ccc([C@@H]2C[C@H](O)CC[C@H]2CCCO)c(O)c1 [CP-55,940, reference compound]
classification hCB2 [1]: full agonist; also recorded: potent agonist

CC1(C)Oc2cc([C@]34CC5CC(C[C@@](CN=C=S)(C5)C3)C4)cc(O)c2[C@@H]2C[C@H](O)CC[C@H]21 [Compound 16, (6aR,9R,10aR)-3-[(1r,3R)-3-(Isothiocyanatomethyl)-adamantan-1-yl]-6,6-dimethyl-6a,7,8,9,10,10a-hexahydro-6H-benzo[c]chromene-1,9-diol]
classification rCB1 [2]: potent agonists; also recorded: agonist
classification hCB2 [1]: inverse agonist

CC1(C)Oc2cc([C@]34CC5CC(C[C@@](CN=[N+]=[N-])(C5)C3)C4)cc(O)c2[C@@H]2C[C@H](O)CC[C@H]21 [Compound 17, (6aR,9R,10aR)-3-[(1r,3R)-3-(Azidomethyl)adamantan-1-yl]-6,6-dimethyl-6a,7,8,9,10,10a-hexahydro-6H-benzo[c]-chromene-1,9-diol]
classification rCB1 [2]: agonist
response of forskolin-stimulated cAMP accumulation, hCB2 ([1]; HEK293 cells expressing hCB2, up to a 3 μM concentration): no response
classification hCB2 [1]: neutral antagonists

CC1(C)Oc2cc([C@]34CC5CC(C[C@@](N=C=S)(C5)C3)C4)cc(O)c2[C@@H]2C[C@H](O)CC[C@H]21 [Compound 19, (6aR,9R,10aR)-3-[(1r,3R)-3-Isothiocyanatoadamantan-1-yl]-6,6-dimethyl-6a,7,8,9,10,10a-hexahydro-6H-benzo[c]-chromene-1,9-diol]
classification rCB1 [2]: potent agonists; also recorded: agonist
CB1 covalent binding, 60 min incubation [3]: no further increase
classification hCB2 [1]: neutral antagonists

CC1(C)Oc2cc([C@]34CC5CC(C[C@@](N=[N+]=[N-])(C5)C3)C4)cc(O)c2[C@@H]2C[C@H](O)CC[C@H]21 [Compound 20, (6aR,9R,10aR)-3-[(1r,3R)-3-Azidoadamantan-1-yl]-6,6-di-methyl-6a,7,8,9,10,10a-hexahydro-6H-benzo[c]chromene-1,9-diol]
classification rCB1 [2]: potent agonists; also recorded: agonist
classification hCB2 [1]: neutral antagonists

CC1(C)Oc2cc([C@]34CC5CC(C[C@@](CC#N)(C5)C3)C4)cc(O)c2[C@@H]2C[C@H](O)CC[C@H]21 [Compound 23, 2-{(1R,3r)-3-[(6aR,9R,10aR)-1,9-Dihydroxy-6,6-dimethyl-6a,7,8,9,10,10a-hexahydro-6H-benzo[c]chromen-3-yl]-adamantan-1-yl}acetonitrile]
classification rCB1 [2]: potent agonists; also recorded: agonist
classification hCB2 [1]: inverse agonist

CC1(C)Oc2cc([C@]34CC5CC(C[C@@](C#N)(C5)C3)C4)cc(O)c2[C@@H]2C[C@H](O)CC[C@H]21 [Compound 25, (1R,3r)-3-[(6aR,9R,10aR)-1,9-Dihydroxy-6,6-dimethyl-6a,7,8,9,10,10a-hexahydro-6H-benzo[c]chromen-3-yl]-adamantane-1-carbonitrile]
classification rCB1 [2]: agonist
classification hCB2 [1]: inverse agonist

COC(=O)N[C@]12CC3CC(C1)C[C@](c1cc(O)c4c(c1)OC(C)(C)[C@@H]1CC[C@@H](O)C[C@@H]41)(C3)C2 [Compound 26, Methyl {(1R,3r)-3-[(6aR,9R,10aR)-1,9-Dihydroxy-6,6-dimethyl-6a,7,8,9,10,10a-hexahydro-6H-benzo[c]chromen-3-yl]-adamantan-1-yl}carbamate]
classification rCB1 [2]: agonist
classification hCB2 [1]: inverse agonist

CC1(C)Oc2cc(C34CC5CC(CC(C5)C3)C4)cc(O)c2[C@@H]2C[C@H](O)CC[C@H]21 [Compound 27, reference compound]
classification rCB1 [2]: agonist
